According to patent US20030130343A1, “Fat accumulation-modulating compounds” (AdipoGenix, Inc., priority 2001, published 2003):

Tests used:
[1] = system: primary human subcutaneous preadipocytes; assay: High throughput screening of compound efficacy: fluorescent fatty acid (FA*) accumulation in differentiating human preadipocytes; assay type: cell-based; design: key to Relative Efficacy: “+++” designates a greater in vitro efficacy than “++”; “++”, which in turn is greater than “+”; “+”; conditions: for Relative Efficacy: inhibitors of fatty acid accumulation into differentiating adipocytes at a concentration of 100 nM
Protocol: Protocol for High Throughput Screening of Compound Efficacy on Human Preadipocytes Up to five cell strains of banked primary human subcutaneous preadipocytes were used for high throughput screening. […] Cells were split up to four times to produce enough cells for screening. […] On day zero, cells were incubated with growth medium to induce differentiation of preadipocytes into adipocytes (characterized by cell rounding, formation of triglyceride droplets, etc.). Growth medium was changed every three days. On day six, cells were incubated in triplicate with test compounds at various concentrations. […] Cell plates were prewashed with FAB+, and then FA* was added. Cells were incubated with FA* for four hours, and then postwashed with FAB+ to remove unincorporated FA*. Cellular fluorescence of triglyceride droplets that have incorporated FA* was measured on a microplate reader. Efficacy of compounds on inhibiting FA* accumulation was determined by the following calculation: […]

mice = conditions: single injections; cited from earlier work
[2] = system: primary human subcutaneous preadipocytes; conditions: at 10 μM; Alamar Blue
Protocol: Subsequent determination of compound toxicity was measured by incubating cells with Alamar Blue (an indicator of cellular viability, purchased from BioSource International Inc., Camarillo, Calif., USA) for three to four hours before measuring fluorescence of the reduced compound. Toxicity of compounds was determined by the following calculation:
% Toxicity=100−(sample fluorescence/negative control fluorescence*100)

Compound | Relative Efficacy [1] | also measured
O=C(Nc1ccncc1)c1cc([N+](=O)[O-])ccc1Cl [AGX-0104] | +++ | 
O=C(Nc1cccnc1)c1cc([N+](=O)[O-])ccc1Cl [AGX-0105] | +++ | 
Cc1cc(NC(=O)c2cc([N+](=O)[O-])ccc2Cl)no1 [AGX-0114] | ++ | 
C=C1C(=O)OC(CCCCCCCC)C1C(=O)O (stereo not drawn) [C75] |  | ate less than untreated littermates consumed (mice): 90%
N#CC(C#N)=NNc1ccc(OC(F)(F)F)cc1 [FCCP, carbonyl cyanide p-(trifluoromethoxy)-phenylhydrazone] |  | Emax at 10 µM ([1]; Homo sapiens, at 10 μM, read-out: % Efficacy (inhibiting FA* accumulation)): 100%; % Toxicity [2]: 100%
